In patent US20170275298A1, “INHIBITORS OF THE RENAL OUTER MEDULLARY POTASSIUM CHANNEL” (Merck Sharp & Dohme Corp., priority 2014, published 2017) one finds IC50 data, which are given here for 21 compounds.

Molecules are shown by their SMILES.

In the assay the target is T1, hROMK (hKir1.1) (Homo sapiens, UniProt P48048).
T1 construct: expressed in transfected cells
T1 sequence (P48048 1-391): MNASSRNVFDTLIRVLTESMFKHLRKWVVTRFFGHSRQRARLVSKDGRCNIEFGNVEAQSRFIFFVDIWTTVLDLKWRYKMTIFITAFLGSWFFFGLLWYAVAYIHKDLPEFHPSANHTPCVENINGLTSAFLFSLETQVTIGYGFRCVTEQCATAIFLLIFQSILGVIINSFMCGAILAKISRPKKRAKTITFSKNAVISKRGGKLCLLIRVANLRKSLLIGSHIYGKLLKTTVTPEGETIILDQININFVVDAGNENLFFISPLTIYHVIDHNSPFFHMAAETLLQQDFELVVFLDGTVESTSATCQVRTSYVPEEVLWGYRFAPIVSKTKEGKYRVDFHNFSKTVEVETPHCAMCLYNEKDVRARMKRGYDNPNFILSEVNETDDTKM
The experiment in a line: Thallium Flux Assay (ROMK channel functional thallium flux assay). The class given is cell-based. To be noted: HEK293 cells stably expressing hROMK (hKir1.1); FluxOR thallium flux, FLIPR-Tetra, 30 min compound incubation; read-out: ROMK TI IC50. As to the method:
The following Thallium Flux Assay was performed on each of the final product compounds in the Examples.
HEK293 cells stably expressing hROMK (hKir1.1) were grown at 37° C. in a 10% CO2 humidified incubator in complete growth media: Dulbecco's Modified Eagle Medium supplemented with non-essential amino acids, Penicillin/Streptomycin/Glutamine, G418 and FBS. At >80% confluency, the media was aspirated from the flask and rinsed with 10 mL calcium/magnesium-free PBS. […] To dislodge the cell, the side of the flask was gently banged with one's hand. The cells completely titrated and then the cells were transferred to 25 mL complete media, centrifuged at 1,500 rpm for 6 min followed by resuspension in complete growth media and determine cell concentration. […] Under ideal growth conditions and appropriate tissue culture practices, this cell line is stable for 40-45 passages.
• FluxOR™ Reagent (Component A) • FluxOR™ Assay Buffer (Component B)—10× Concentrate • PowerLoad™ Concentrate (Component C)—100× Concentrate • Probenecid (Component D)—Lyophilized sample is kept at −20° C. Water soluble, 100× after solubilization in 1 mL water. […] Store at 4° C. • Thallium sulfate (Tl2SO4) Concentrate (Component G)—50 mM in water. Store at 4° C. • DMSO (dimethyl sulfoxide, Component H)—1 mL (100%)
Can be stored at room temperature • Stimulant Buffer (prepared at 5× final concentration in 1×FluxOR™ Chloride-Free Buffer): 7.5 mM thallium sulfate and 0.75 mM potassium sulfate (to give a final assay concentration of 3 mM Thallium/0.3 mM potassium). Store at 4° C. when not in use. If kept sterile, this solution is good for months.
The ROMK channel functional thallium flux assay was performed in 384 wells, using the FLIPR-Tetra instrument. HEK-hKir1.1 cells were seeded in Poly-D-Lysine microplates and kept in a 37° C.-10% CO2 incubator overnight. On the day of the experiment, the growth media was replaced with the FluxOR™ reagent loading buffer and incubated, protected from light, at ambient temperature (23-25° C.) for 90 min. The loading buffer was replaced with assay buffer±test compound followed by 30 min incubation at ambient temperature, where the thallium/potassium stimulant was added to the microplate.
1. Seed HEK-hKir1.1 cells (50 μl at 20,000 cells/well) in 384-well PDL coated Microplates 2. Allow cells to adhere overnight in humidified 37° C./10% CO2 incubator 3. Completely remove cell growth media from microplate and replace with 25 μl loading buffer 4. Incubate Microplate at room temperature, protected form light, for 90 min 5. Remove loading buffer and replace with 25 μl 1× Assay Buffer±test compound. 6. Incubate microplate at room temperature, protected from light, for 30 min 7. […] Excitation=400 nm, Emission=460 & 580 nm. Collect data for ˜10 min.
The fluorescence intensity of wells containing 3 μM of a standard control ROMK inhibitor of the present invention was used to define the ROMK-sensitive component of thallium flux. Fluorescence in the presence of test compounds was normalized to control values to provide % fluorescence change.

As usually defined, the IC50 is the concentration that inhibits the measured activity by half.

Regarding `Cn1nc(N2CCC3(CCN(CCc4ccc(-n5cnnn5)nc4)CC3)C2=O)ccc1=O` [Example 22, 8-(2-(6-(1H-tetrazol-1-yl)pyridin-3-yl)ethyl)-2-(1-methyl-6-oxo-1,6-dihydropyridazin-3-yl)-2,8-diazaspiro[4.5]decan-1-one], the IC50 came out at 0.42 µM.
`COc1cc(N2CCOC3(CCN(C[C@H](O)c4ccc5c(c4C)COC5=O)CC3)C2=O)ccn1` [Example 23, (R)-9-(2-hydroxy-2-(4-methyl-1-oxo-1,3-dihydroisobenzofuran-5-yl)ethyl)-4-(2-methoxypyridin-4-yl)-1-oxa-4,9-diazaspiro[5.5]undecan-5-one]: the IC50 was found to be 0.407 µM.
For `COc1nccc(N2CCOC3(CCN(C[C@H](O)c4ccc5c(c4C)COC5=O)CC3)C2=O)n1` [Example 24, (R)-9-(2-hydroxy-2-(4-methyl-1-oxo-1,3-dihydroisobenzofuran-5-yl)ethyl)-4-(2-methoxypyrimidin-4-yl)-1-oxa-4,9-diazaspiro[5.5]undecan-5-one], the IC50 worked out at 0.0302 µM.
Take `Cc1c([C@@H](O)CN2CCC3(CC2)CCN(c2cnccn2)C3=O)ccc2c1COC2=O` [Example 25, (R)-8-(2-hydroxy-2-(4-methyl-1-oxo-1,3-dihydroisobenzofuran-5-yl)ethyl)-2-(pyrazin-2-yl)-2,8-diazaspiro[4.5]decan-1-one]: the IC50 turned out to be 0.437 µM.
To `Cc1c([C@@H](O)CN2CCC3(CC2)OCCN(c2ccncc2)C3=O)ccc2c1COC2=O` [Example 26, (R)-9-(2-hydroxy-2-(4-methyl-1-oxo-1,3-dihydroisobenzofuran-5-yl)ethyl)-4-(pyridin-4-yl)-1-oxa-4,9-diazaspiro[5.5]undecan-5-one] belongs 0.238 µM; to `COc1nsc(N2CCOC3(CCN(C[C@H](O)c4ccc5c(c4C)COC5=O)CC3)C2=O)n1` [Example 27, (R)-9-(2-hydroxy-2-(4-methyl-1-oxo-1,3-dihydroisobenzofuran-5-yl)ethyl)-4-(3-methoxy-1,2,4-thiadiazol-5-yl)-1-oxa-4,9-diazaspiro[5.5]undecan-5-one], 0.025 µM.
As to `Cc1nsc(N2CCOC3(CCN(C[C@H](O)c4ccc5c(c4C)COC5=O)CC3)C2=O)n1` [Example 28, (R)-9-(2-hydroxy-2-(4-methyl-1-oxo-1,3-dihydroisobenzofuran-5-yl)ethyl)-4-(3-methyl-1,2,4-thiadiazol-5-yl)-1-oxa-4,9-diazaspiro[5.5]undecan-5-one], the IC50 worked out at 0.123 µM.
In the case of `Cc1c([C@@H](O)CN2CCC3(CCCN(c4ccc(=O)n(C)n4)C3=O)CC2)ccc2c1COC2=O` [Example 29, (R)-9-(2-hydroxy-2-(4-methyl-1-oxo-1,3-dihydroisobenzofuran-5-yl)ethyl)-2-(1-methyl-6-oxo-1,6-dihydropyridazin-3-yl)-2,9-diazaspiro[5.5]undecan-1-one], the IC50 was 0.145 µM.
Consider `Cc1c([C@@H](O)CN2CCC3(CC2)CC(=O)N(c2ccc(=O)n(C)n2)C3)ccc2c1COC2=O` [Example 30, (R)-8-(2-hydroxy-2-(4-methyl-1-oxo-1,3-dihydroisobenzofuran-5-yl)ethyl)-2-(1-methyl-6-oxo-1,6-dihydropyridazin-3-yl)-2,8-diazaspiro[4.5]decan-3-one], for which the IC50 amounted to 0.0951 µM.
As for `COc1nccc(N2CC3(CCN(C[C@H](O)c4ccc5c(c4C)COC5=O)CC3)CC2=O)n1` [Example 31, (R)-8-(2-hydroxy-2-(4-methyl-1-oxo-1,3-dihydroisobenzofuran-5-yl)ethyl)-2-(2-methoxypyrimidin-4-yl)-2,8-diazaspiro[4.5]decan-3-one], the IC50 was found to be 0.153 µM.
Regarding `Cc1c([C@@H](O)CN2CCC3(CC2)CCN(c2ccc(OC(F)(F)F)cc2)C3=O)ccc2c1COC2=O` [Example 32, (R)-8-(2-hydroxy-2-(4-methyl-1-oxo-1,3-dihydroisobenzofuran-5-yl)ethyl)-2-(4-(trifluoromethoxy)phenyl)-2,8-diazaspiro[4.5]decan-1-one], the IC50 worked out at 0.465 µM.
As to `Cc1c([C@@H](O)CN2CCC3(CC2)CCN(c2ccc(C(F)F)nc2)C3=O)ccc2c1COC2=O` [Example 33, (R)-2-(6-(difluoromethyl)pyridin-3-yl)-8-(2-hydroxy-2-(4-methyl-1-oxo-1,3-dihydroisobenzofuran-5-yl)ethyl)-2,8-diazaspiro[4.5]decan-1-one], the IC50 turned out to be 0.0631 µM.
In the case of `Cc1c([C@@H](O)CN2CCC3(CC2)CCN(c2cc(-c4ccccc4)no2)C3=O)ccc2c1COC2=O` [Example 34, (R)-8-(2-hydroxy-2-(4-methyl-1-oxo-1,3-dihydroisobenzofuran-5-yl)ethyl)-2-(3-phenylisoxazol-5-yl)-2,8-diazaspiro[4.5]decan-1-one], the IC50 came to 0.505 µM.
Consider `Cc1c([C@@H](O)CN2CCC3(CC2)CCN(c2cccnc2)C3=O)ccc2c1COC2=O` [Example 35, (R)-8-(2-hydroxy-2-(4-methyl-1-oxo-1,3-dihydroisobenzofuran-5-yl)ethyl)-2-(pyridin-3-yl)-2,8-diazaspiro[4.5]decan-1-one], for which the IC50 worked out at 0.379 µM.
Turning to `COc1ccc(N2CCC3(CCN(C[C@H](O)c4ccc5c(c4C)COC5=O)CC3)C2=O)nn1` [Example 36, (R)-8-(2-hydroxy-2-(4-methyl-1-oxo-1,3-dihydroisobenzofuran-5-yl)ethyl)-2-(6-methoxypyridazin-3-yl)-2,8-diazaspiro[4.5]decan-1-one], the IC50 stood at 0.393 µM.
In the case of `Cc1c([C@@H](O)CN2CCC3(CC2)CCN(c2cncnc2)C3=O)ccc2c1COC2=O` [Example 37, (R)-8-(2-hydroxy-2-(4-methyl-1-oxo-1,3-dihydroisobenzofuran-5-yl)ethyl)-2-(pyrimidin-5-yl)-2,8-diazaspiro[4.5]decan-1-one], the IC50 was found to be 0.676 µM.
On to `Cc1c([C@@H](O)CN2CCC3(CC2)CCN(c2cncc(F)c2)C3=O)ccc2c1COC2=O` [Example 38, (R)-2-(5-fluoropyridin-3-yl)-8-(2-hydroxy-2-(4-methyl-1-oxo-1,3-dihydroisobenzofuran-5-yl)ethyl)-2,8-diazaspiro[4.5]decan-1-one], for which the IC50 was 0.0825 µM.
Regarding `[2H]C([2H])([2H])Oc1nccc(N2CCC3(CCN(C[C@H](O)c4ccc5c(c4C)COC5=O)CC3)C2=O)n1` [Example 39, (R)-8-(2-hydroxy-2-(4-methyl-1-oxo-1,3-dihydroisobenzofuran-5-yl)ethyl)-2-(2-methoxypyrimidin-4-yl)-2,8-diazaspiro[4.5]decan-1-one (methoxy-d3)], the IC50 was determined as 0.0388 µM.
Turning to `COc1ncc(N2CCC3(CCN(C[C@H](O)c4ccc5c(c4C)COC5=O)CC3)C2=O)cn1` [Example 40, (R)-8-(2-hydroxy-2-(4-methyl-1-oxo-1,3-dihydroisobenzofuran-5-yl)ethyl)-2-(2-methoxypyrimidin-5-yl)-2,8-diazaspiro[4.5]decan-1-one], the IC50 is 0.142 µM.
`Cc1nccc(N2CCC3(CCN(C[C@H](O)c4ccc5c(c4C)COC5=O)CC3)C2=O)n1` [Example 41, (R)-8-(2-hydroxy-2-(4-methyl-1-oxo-1,3-dihydroisobenzofuran-5-yl)ethyl)-2-(2-methylpyrimidin-4-yl)-2,8-diazaspiro[4.5]decan-1-one]: the IC50 was determined as 0.193 µM.
As to `COc1cc(N2CCC3(CCN(C[C@H](O)c4ccc5c(c4C)COC5=O)CC3)C2=O)nc(OC)n1` [Example 42, (R)-2-(2,6-dimethoxypyrimidin-4-yl)-8-(2-hydroxy-2-(4-methyl-1-oxo-1,3-dihydroisobenzofuran-5-yl)ethyl)-2,8-diazaspiro[4.5]decan-1-one], the IC50 came to 0.842 µM.
